Test results: article PMC6704710, “Preclinical evaluation of 3D185, a novel potent inhibitor of FGFR1/2/3 and CSF-1R, in FGFR-dependent and macrophage-dominant cancer models” (Journal of Experimental & Clinical Cancer Research : CR, 2019)

Legend:
Experiment in all cases: Eurofins kinase panel
Assay type in all cases: biochemical
Conditions in all cases: read-out: Inhibition rate (%)
PKD3(h) = target: T1, PKD3(h) (Homo sapiens, UniProt O94806)
T1 construct: purchased Eurofins (KinaseProfiler)
T1 sequence (O94806 1-890): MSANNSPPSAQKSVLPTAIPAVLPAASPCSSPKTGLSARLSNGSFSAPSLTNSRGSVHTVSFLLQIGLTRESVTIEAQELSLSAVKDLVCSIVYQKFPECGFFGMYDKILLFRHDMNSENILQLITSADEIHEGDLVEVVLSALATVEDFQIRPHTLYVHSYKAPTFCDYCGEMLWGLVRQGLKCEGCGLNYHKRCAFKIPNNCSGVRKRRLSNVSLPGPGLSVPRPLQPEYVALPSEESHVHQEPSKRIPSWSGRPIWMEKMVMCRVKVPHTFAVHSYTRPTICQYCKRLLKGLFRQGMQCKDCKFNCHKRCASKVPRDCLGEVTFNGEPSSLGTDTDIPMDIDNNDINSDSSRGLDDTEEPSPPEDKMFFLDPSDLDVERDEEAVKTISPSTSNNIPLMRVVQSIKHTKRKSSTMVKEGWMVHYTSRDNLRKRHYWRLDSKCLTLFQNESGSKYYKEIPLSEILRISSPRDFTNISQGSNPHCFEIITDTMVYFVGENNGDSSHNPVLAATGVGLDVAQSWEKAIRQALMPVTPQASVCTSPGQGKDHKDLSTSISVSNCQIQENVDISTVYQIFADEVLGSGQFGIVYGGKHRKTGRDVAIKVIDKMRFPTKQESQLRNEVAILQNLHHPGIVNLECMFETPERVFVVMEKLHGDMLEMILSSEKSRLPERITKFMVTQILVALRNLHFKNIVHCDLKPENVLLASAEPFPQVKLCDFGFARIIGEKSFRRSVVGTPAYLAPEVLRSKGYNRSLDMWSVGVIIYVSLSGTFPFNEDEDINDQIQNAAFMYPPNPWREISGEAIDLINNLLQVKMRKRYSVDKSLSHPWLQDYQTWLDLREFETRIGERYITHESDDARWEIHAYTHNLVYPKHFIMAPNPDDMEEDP

KDR(h) = target: T2, KDR(h) (Homo sapiens, UniProt P35968)
T2 construct: purchased Eurofins (KinaseProfiler)
T2 sequence (P35968 20-1356): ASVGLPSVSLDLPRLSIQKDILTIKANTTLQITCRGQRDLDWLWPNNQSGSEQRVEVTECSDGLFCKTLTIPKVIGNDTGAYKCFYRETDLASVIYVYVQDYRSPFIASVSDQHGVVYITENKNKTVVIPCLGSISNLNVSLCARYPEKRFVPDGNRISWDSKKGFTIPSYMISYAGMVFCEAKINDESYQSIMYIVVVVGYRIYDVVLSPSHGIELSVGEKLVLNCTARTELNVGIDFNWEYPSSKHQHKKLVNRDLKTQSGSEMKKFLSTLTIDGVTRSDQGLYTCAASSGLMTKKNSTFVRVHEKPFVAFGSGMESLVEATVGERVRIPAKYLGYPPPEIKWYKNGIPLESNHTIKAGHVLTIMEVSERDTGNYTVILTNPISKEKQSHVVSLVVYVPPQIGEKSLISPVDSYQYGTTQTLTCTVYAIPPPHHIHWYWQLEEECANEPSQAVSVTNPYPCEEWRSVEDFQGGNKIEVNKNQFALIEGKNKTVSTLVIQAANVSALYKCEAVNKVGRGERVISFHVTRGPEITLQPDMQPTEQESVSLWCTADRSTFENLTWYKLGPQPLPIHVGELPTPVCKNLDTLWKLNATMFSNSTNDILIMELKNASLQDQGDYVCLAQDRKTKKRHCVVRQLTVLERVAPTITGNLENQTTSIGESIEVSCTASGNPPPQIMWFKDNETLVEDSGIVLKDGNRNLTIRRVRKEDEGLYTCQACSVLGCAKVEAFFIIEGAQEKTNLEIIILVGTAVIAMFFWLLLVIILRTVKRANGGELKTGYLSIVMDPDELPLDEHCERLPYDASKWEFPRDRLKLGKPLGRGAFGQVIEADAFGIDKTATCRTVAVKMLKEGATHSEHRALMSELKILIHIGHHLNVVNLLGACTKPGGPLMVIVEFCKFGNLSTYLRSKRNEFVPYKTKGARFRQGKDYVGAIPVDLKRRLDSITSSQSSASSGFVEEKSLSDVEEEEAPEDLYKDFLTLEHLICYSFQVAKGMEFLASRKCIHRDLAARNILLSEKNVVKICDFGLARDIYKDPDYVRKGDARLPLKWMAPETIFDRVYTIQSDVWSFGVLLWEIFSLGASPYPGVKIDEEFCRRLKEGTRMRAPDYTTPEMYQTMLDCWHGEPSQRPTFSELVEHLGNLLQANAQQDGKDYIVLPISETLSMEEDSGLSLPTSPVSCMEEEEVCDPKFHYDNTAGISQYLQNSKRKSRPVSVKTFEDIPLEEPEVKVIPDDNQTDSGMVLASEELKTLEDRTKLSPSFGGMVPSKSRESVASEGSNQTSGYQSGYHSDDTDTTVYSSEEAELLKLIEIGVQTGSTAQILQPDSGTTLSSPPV

IRAK4(h) = target: T3, IRAK4(h) (Homo sapiens, UniProt Q9NWZ3)
T3 construct: purchased Eurofins (KinaseProfiler)
T3 sequence (Q9NWZ3 1-460): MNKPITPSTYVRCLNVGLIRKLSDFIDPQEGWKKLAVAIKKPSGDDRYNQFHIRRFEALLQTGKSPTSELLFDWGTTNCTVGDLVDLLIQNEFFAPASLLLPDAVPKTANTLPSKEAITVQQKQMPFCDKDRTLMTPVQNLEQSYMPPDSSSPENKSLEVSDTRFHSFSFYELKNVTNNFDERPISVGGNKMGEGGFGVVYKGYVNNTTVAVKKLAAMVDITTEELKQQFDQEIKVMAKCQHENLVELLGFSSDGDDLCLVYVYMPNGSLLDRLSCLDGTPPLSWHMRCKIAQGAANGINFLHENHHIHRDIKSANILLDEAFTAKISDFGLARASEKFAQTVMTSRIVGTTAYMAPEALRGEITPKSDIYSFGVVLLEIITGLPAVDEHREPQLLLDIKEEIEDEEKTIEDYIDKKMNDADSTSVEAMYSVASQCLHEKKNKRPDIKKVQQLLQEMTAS

Met(Y1248C)(h) = target: T4, Met(Y1248C)(h) (Homo sapiens, UniProt P08581, Y1230C)
T4 construct: purchased Eurofins (KinaseProfiler)
T4 sequence (P08581 956-1390 Y1230C limits assumed): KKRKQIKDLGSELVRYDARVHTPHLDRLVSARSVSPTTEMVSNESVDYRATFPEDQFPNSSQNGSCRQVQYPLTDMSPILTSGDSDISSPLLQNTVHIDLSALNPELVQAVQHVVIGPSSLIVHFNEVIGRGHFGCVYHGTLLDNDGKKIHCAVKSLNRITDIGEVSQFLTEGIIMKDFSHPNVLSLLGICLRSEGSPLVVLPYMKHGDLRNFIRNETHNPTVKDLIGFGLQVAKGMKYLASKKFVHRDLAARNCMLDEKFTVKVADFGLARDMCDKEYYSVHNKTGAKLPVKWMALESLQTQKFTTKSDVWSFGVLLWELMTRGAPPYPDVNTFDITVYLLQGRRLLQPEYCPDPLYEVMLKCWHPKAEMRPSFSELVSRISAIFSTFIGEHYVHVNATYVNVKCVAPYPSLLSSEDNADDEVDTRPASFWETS

JAK1(h) = target: T5, JAK1(h) (Homo sapiens, UniProt P23458)
T5 construct: purchased Eurofins (KinaseProfiler)
T5 sequence (P23458 whole entry): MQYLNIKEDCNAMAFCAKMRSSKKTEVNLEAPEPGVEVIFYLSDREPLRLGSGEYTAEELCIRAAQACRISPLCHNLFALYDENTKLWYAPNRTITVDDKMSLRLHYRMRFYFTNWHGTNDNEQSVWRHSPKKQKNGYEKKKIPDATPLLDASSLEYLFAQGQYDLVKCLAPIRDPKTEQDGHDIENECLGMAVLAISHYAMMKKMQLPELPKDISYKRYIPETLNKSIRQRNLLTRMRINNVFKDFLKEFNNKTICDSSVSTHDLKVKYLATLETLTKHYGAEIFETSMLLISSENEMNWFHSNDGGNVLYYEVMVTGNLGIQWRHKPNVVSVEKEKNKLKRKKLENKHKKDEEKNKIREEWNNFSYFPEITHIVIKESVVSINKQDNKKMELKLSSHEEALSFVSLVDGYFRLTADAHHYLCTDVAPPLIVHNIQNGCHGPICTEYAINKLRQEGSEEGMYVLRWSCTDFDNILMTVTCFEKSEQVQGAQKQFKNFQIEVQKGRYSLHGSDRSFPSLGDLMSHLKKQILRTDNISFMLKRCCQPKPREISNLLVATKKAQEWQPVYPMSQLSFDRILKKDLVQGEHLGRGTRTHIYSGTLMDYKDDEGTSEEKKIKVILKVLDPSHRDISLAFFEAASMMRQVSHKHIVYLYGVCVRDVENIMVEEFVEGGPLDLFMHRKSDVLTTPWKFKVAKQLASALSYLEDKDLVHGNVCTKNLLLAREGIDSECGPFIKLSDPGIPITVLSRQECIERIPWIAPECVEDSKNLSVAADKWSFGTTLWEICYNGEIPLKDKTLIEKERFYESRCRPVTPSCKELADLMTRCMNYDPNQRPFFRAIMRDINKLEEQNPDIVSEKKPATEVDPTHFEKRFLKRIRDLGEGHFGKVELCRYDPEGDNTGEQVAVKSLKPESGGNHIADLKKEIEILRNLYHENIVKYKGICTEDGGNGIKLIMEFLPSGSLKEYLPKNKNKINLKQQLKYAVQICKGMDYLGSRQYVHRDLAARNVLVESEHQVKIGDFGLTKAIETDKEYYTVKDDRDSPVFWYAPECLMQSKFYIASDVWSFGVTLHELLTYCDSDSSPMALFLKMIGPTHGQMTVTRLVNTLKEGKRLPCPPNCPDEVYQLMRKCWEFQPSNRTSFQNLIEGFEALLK

TSSK1(h) = target: T6, TSSK1(h) (Homo sapiens, UniProt Q9BXA7)
T6 construct: purchased Eurofins (KinaseProfiler)
T6 sequence (Q9BXA7 1-367): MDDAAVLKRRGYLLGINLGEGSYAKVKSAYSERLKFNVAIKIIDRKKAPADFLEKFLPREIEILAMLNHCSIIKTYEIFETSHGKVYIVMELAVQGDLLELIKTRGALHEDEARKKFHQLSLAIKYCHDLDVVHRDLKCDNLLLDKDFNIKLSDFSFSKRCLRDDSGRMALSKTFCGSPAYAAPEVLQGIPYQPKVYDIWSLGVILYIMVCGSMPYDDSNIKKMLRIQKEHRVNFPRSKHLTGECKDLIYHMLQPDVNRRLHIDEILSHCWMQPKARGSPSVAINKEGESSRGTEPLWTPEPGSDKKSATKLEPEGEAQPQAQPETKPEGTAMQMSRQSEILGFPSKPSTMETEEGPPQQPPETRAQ

GRK6(h) = target: T7, GRK6(h) (Homo sapiens, UniProt P43250)
T7 construct: purchased Eurofins (KinaseProfiler)
T7 sequence (P43250 whole entry): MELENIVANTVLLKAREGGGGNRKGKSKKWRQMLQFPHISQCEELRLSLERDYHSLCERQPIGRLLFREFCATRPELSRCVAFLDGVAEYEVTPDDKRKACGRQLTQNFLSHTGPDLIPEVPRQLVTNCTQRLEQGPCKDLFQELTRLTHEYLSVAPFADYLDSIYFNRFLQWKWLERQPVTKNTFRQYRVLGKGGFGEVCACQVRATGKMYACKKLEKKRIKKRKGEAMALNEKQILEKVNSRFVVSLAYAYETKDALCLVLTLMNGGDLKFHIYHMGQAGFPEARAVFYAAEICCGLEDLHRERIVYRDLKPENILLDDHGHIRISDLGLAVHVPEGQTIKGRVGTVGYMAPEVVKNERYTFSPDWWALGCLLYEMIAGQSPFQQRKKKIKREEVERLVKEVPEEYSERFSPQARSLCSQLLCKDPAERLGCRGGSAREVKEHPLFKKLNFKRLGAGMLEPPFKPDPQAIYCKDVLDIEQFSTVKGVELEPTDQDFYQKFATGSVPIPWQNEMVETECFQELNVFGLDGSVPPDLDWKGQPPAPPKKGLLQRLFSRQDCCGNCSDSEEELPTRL

[1] = target: T8, PI3 Kinase (p110δ/p85α)(h) (Homo sapiens, UniProt O00329)
T8 construct: purchased Eurofins (KinaseProfiler)

ROCK-II(h) = target: T9, ROCK-II(h) (Homo sapiens, UniProt O75116)
T9 construct: purchased Eurofins (KinaseProfiler)

PKCδ(h) = target: T10, PKCδ(h) (Homo sapiens, UniProt Q05655)
T10 construct: purchased Eurofins (KinaseProfiler)
T10 sequence (Q05655 whole entry): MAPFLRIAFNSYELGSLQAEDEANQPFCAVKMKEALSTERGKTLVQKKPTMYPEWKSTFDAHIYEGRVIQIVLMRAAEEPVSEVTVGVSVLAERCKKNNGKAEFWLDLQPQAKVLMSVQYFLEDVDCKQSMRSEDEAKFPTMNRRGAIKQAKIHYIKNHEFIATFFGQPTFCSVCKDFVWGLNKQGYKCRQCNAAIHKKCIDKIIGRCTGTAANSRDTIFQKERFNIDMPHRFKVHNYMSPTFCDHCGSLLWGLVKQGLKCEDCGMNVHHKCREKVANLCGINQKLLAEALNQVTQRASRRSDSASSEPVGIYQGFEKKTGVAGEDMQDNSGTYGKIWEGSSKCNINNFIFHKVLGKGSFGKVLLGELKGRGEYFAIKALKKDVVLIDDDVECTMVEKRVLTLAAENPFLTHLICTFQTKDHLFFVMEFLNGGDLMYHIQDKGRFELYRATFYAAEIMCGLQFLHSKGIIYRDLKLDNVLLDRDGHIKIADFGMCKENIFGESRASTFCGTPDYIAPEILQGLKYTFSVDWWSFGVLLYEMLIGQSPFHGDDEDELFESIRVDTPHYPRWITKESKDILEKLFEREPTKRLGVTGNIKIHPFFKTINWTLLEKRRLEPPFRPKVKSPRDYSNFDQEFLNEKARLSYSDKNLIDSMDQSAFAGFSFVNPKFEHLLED

Lck(h) activated = target: T11, Lck(h) activated (Homo sapiens, UniProt P06239)
T11 construct: purchased Eurofins (KinaseProfiler)
T11 sequence (P06239 whole entry): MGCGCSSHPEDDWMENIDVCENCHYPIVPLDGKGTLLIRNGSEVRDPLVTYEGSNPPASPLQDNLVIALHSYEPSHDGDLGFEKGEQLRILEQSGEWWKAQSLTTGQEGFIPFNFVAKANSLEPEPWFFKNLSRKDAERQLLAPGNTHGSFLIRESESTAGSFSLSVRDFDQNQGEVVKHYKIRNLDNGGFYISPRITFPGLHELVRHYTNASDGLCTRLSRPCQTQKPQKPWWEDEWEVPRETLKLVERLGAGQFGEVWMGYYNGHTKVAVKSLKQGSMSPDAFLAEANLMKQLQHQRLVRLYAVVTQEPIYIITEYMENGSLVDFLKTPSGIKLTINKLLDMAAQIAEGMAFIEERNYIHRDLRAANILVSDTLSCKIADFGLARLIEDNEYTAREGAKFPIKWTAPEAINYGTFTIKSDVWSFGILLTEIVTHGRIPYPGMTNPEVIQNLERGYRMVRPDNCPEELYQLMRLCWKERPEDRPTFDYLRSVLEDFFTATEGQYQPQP

## COc1cc(OC)c(Cl)c(-c2ccc3c(NC(=O)c4ccc(N5CCNC(C)(C)C5)cc4)n[nH]c3n2)c1Cl [3D185]
PKD3(h); 10 nM
  inhibition at 0.01 µM: -3%
PKD3(h); 100 nM
  inhibition at 0.1 µM: -2%
PKD3(h); 1000 nM
  inhibition at 1 µM: 11%
KDR(h); 10 nM
  inhibition at 0.01 µM: -2%
KDR(h); 100 nM
  inhibition at 0.1 µM: 1%
KDR(h); 1000 nM
  inhibition at 1 µM: 10%
IRAK4(h); 10 nM
  inhibition at 0.01 µM: -2%
IRAK4(h); 100 nM
  inhibition at 0.1 µM: -2%
IRAK4(h); 1000 nM
  inhibition at 1 µM: -4%
Met(Y1248C)(h); 10 nM
  inhibition at 0.01 µM: -9%
Met(Y1248C)(h); 100 nM
  inhibition at 0.1 µM: -2%
Met(Y1248C)(h); 1000 nM
  inhibition at 1 µM: 5%
JAK1(h); 10 nM
  inhibition at 0.01 µM: 13%
JAK1(h); 100 nM
  inhibition at 0.1 µM: 15%
JAK1(h); 1000 nM
  inhibition at 1 µM: 20%
TSSK1(h); 10 nM
  inhibition at 0.01 µM: 5%
TSSK1(h); 100 nM
  inhibition at 0.1 µM: 2%
TSSK1(h); 1000 nM
  inhibition at 1 µM: 13%
GRK6(h); 10 nM
  inhibition at 0.01 µM: -4%
GRK6(h); 100 nM
  inhibition at 0.1 µM: -6%
GRK6(h); 1000 nM
  inhibition at 1 µM: -5%
[1]; 10 nM
  inhibition at 0.01 µM: 1%
[1]; 100 nM
  inhibition at 0.1 µM: -4%
[1]; 1000 nM
  inhibition at 1 µM: 5%
ROCK-II(h); 10 nM
  inhibition at 0.01 µM: 0%
ROCK-II(h); 100 nM
  inhibition at 0.1 µM: -1%
ROCK-II(h); 1000 nM
  inhibition at 1 µM: -1%
PKCδ(h); 10 nM
  inhibition at 0.01 µM: 5%
PKCδ(h); 100 nM
  inhibition at 0.1 µM: 4%
PKCδ(h); 1000 nM
  inhibition at 1 µM: -1%
Lck(h) activated; 10 nM
  inhibition at 0.01 µM: 16%
Lck(h) activated; 100 nM
  inhibition at 0.1 µM: 59%
Lck(h) activated; 1000 nM
  inhibition at 1 µM: 92%
